Data published in ChEMBL document CHEMBL3822445, “Histone demethylating agents as potential S-adenosyl-l-methionine-competitors” (Medchemcomm, 2016).
Activity calls are given as the source filed them. The calls are words filed in the database; no cut-off is given here.

Experiments:
MCF7 [1] = test: Inhibition of DNA methylation in human MCF7 cells assessed as reduction in H3K27me3 levels at 15 uM after 48 hrs by Western blot analysis; format: cell-based
MCF7 [2] = test: Inhibition of DNA methylation in human MCF7 cells assessed as reduction in H3K9me3 levels at 15 uM after 48 hrs by Western blot analysis; format: cell-based
MCF7 [3] = test: Antiproliferative activity against human MCF7 cells after 48 to 72 hrs by MTT assay; format: functional, cell-based
[4] = Antiproliferative activity against human H460 cells after 48 to 72 hrs by MTT assay; format: functional, cell-based; conditions: NCI-H460
MSTO-211H = test: Antiproliferative activity against human MSTO-211H cells after 48 to 72 hrs by MTT assay; format: functional, cell-based
MCF7 [5] = test: Cell cycle arrest in human MCF7 cells assessed as accumulation at G2/M phase at 15 uM after 72 hrs by flow cytometry relative to control; format: functional
MCF7 [6] = test: Induction of apoptosis in human MCF7 cells assessed as viable cells at 15 uM after 48 hrs by AnnexinV-FITC staining based flow cytometry (reference value: 74.4 +/- 9.1 %); format: functional; conditions: MCF7, 48 h, read-out: Activity
MCF7 [7] = test: Induction of apoptosis in human MCF7 cells assessed as viable cells at 15 uM after 72 hrs by AnnexinV-FITC staining based flow cytometry (reference value: 60.5 +/- 6 %); format: functional; conditions: MCF7, 72 h, read-out: Activity
MCF7 [8] = test: Induction of apoptosis in human MCF7 cells assessed as early apoptotic cells at 15 uM after 48 hrs by AnnexinV-FITC staining based flow cytometry (reference value: 7.8 +/- 5.3 %); format: functional
MCF7 [9] = test: Induction of apoptosis in human MCF7 cells assessed as early apoptotic cells at 15 uM after 72 hrs by AnnexinV-FITC staining based flow cytometry (reference value: 20.1 +/- 7.3 %); format: functional
MCF7 [10] = test: Induction of apoptosis in human MCF7 cells assessed as late apoptotic cells at 15 uM after 48 hrs by AnnexinV-FITC staining based flow cytometry (reference value: 7.6 +/- 5.9 %); format: functional
MCF7 [11] = test: Induction of apoptosis in human MCF7 cells assessed as late apoptotic cells at 15 uM after 72 hrs by AnnexinV-FITC staining based flow cytometry (reference value: 11.8 +/- 2.2 %); format: functional
MCF7 [12] = test: Induction of apoptosis in human MCF7 cells assessed as necrotic cells at 15 uM after 48 hrs by AnnexinV-FITC staining based flow cytometry (reference value: 10.2 +/- 1.9 %); format: functional
MCF7 [13] = test: Induction of apoptosis in human MCF7 cells assessed as necrotic cells at 15 uM after 72 hrs by AnnexinV-FITC staining based flow cytometry (reference value: 7.6 +/- 1 %); format: functional
[14] = target: T1, Histone-lysine N-methyltransferase EHMT2 (Homo sapiens) (UniProt Q96KQ7); test: Inhibition of G9a in human MCF7 nuclear extracts assessed as reduction in H3K9 levels at 15 uM after 48 hrs; format: cell-based
T1 sequence (whole entry): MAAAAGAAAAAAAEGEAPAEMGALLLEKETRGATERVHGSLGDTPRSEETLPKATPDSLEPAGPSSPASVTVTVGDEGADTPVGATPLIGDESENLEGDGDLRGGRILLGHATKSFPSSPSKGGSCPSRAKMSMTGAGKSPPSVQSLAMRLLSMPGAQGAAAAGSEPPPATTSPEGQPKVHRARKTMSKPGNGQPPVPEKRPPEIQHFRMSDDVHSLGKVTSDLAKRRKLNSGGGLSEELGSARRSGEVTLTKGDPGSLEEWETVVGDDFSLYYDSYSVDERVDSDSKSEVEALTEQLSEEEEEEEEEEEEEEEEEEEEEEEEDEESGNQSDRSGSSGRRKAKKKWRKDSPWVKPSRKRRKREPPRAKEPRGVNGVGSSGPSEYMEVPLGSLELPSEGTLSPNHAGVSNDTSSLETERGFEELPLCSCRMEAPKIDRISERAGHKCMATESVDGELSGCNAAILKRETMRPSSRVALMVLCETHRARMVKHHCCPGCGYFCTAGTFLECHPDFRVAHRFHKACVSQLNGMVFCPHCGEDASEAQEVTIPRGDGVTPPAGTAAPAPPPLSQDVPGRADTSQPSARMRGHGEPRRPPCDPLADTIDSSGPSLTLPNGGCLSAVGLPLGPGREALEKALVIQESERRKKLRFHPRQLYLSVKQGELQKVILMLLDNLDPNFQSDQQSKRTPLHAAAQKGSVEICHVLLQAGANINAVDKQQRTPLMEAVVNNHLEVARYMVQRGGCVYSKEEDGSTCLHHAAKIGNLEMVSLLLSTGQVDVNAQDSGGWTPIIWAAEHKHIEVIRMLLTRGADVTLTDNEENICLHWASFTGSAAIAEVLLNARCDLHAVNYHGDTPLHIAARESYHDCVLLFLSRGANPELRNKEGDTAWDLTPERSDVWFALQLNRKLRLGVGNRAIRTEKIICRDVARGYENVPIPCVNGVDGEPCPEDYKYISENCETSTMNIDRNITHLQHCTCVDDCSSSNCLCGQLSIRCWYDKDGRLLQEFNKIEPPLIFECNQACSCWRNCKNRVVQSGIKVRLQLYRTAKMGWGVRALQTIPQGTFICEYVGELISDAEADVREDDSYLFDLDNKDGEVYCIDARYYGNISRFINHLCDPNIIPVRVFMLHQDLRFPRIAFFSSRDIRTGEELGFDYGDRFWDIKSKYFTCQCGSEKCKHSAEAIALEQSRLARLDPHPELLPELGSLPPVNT

[15] = target: T1, Histone-lysine N-methyltransferase EHMT2 (Homo sapiens); test: Inhibition of G9a in human MCF7 nuclear extracts assessed as reduction in H3K27 levels at 15 uM after 48 hrs; format: cell-based
[16] = Antiproliferative activity against human Ovarian cancer LA#83 cells assessed as cell survival at 20 uM after 72 hrs by MTT assay relative to control; format: functional; conditions: read-out: Survival
[17] = Antiproliferative activity against human Ovarian cancer DC#83 cells assessed as cell survival at 20 uM after 72 hrs by MTT assay relative to control; format: functional; conditions: read-out: Survival
[18] = Antiproliferative activity against human Ovarian cancer LA#110 cells assessed as cell survival at 20 uM after 72 hrs by MTT assay relative to control; format: functional; conditions: read-out: Survival
[19] = Antiproliferative activity against human Ovarian cancer DC#110 cells assessed as cell survival at 20 uM after 72 hrs by MTT assay relative to control; format: functional; conditions: read-out: Survival
MCF7 [20] = test: Inhibition of DNA methylation in human MCF7 cells assessed as decrease in 5-methylcytosine level by ELISA; format: cell-based
MCF7 [21] = test: Inhibition of DNA methylation in human MCF7 cells assessed as decrease in methylation of RARbeta DNA by qPCR method; format: cell-based
MCF7 [22] = test: Inhibition of DNA methylation in human MCF7 cells assessed as reduction in H3K9me3 levels at 3 uM after 48 hrs by Western blot analysis; format: cell-based
MCF7 [23] = test: Inhibition of DNA methylation in human MCF7 cells assessed as reduction in H3K27me3 levels at 3 uM after 48 hrs by Western blot analysis; format: cell-based
MCF7 [24] = test: Cell cycle arrest in human MCF7 cells assessed as accumulation at G0/G1 phase at 15 uM after 24 hrs by flow cytometry relative to control; format: functional

Row | SMILES | inhibition (MCF7 [1]) | inhibition (MCF7 [2]) | IC50 (MCF7 [3]) [µM] | IC50 [4] [µM] | IC50 (MSTO-211H) [µM] | viability at 15 µM (MCF7 [6]) [%] | viability at 15 µM (MCF7 [7]) [%] | Activity (MCF7 [8]) [%] | Activity (MCF7 [9]) [%] | Activity (MCF7 [10]) [%] | Activity (MCF7 [11]) [%] | Activity (MCF7 [12]) [%] | Activity (MCF7 [13]) [%] | inhibition [14] | inhibition [15] | viability at 20 µM [16] [%] | viability at 20 µM [17] [%] | viability at 20 µM [18] [%] | viability at 20 µM [19] [%] | inhibition (MCF7 [21]) | further results
1 | Cc1ccc(-c2cn3c(n2)sc2ccccc23)cc1 | inactive | inactive | 30.4 | > 20 | > 20 | 61.4 | 45.2 | 18.7 | 29 | 11.8 | 21 | 8.1 | 4.8 | Active | inactive | 70.2 | 90.3 | 77.1 | 80.1 | inactive | Activity (MCF7 [5]): Active; inhibition (MCF7 [20]): inactive
2 | C#Cc1cccc(Nc2ncnc3cc(OCCOC)c(OCCOC)cc23)c1 [ERLOTINIB] | – | – | – | – | – | – | – | – | – | – | – | – | – | – | – | 24.7 | 94.5 | 27.7 | 75.3 | – | –
3 | COc1cc2nc(N3CCCN(C)CC3)nc(NC3CCN(Cc4ccccc4)CC3)c2cc1OC | – | – | – | – | – | 67.2 | 65.8 | 12.6 | 13.5 | 13.8 | 14.3 | 6.3 | 6.3 | Active | Active | 57 | 86.2 | 50.2 | 73 | – | inhibition (MCF7 [22]): 80%; inhibition (MCF7 [23]): 25%
4 | CN1CCN(C(=O)[C@H]2Cc3c([nH]c4ccccc34)[C@@H]3N(C)c4ccccc4C(=O)N23)CC1 | 30% | 70% | 34.8 | 9.05 | 6.6 | 64.6 | 54.7 | 13.6 | 23.3 | 12.2 | 15.8 | 9.6 | 6.2 | Active | Active | 77.3 | 84.2 | 56.7 | 87.7 | Active | Activity (MCF7 [5]): Active; inhibition (MCF7 [20]): Active
5 | CCCCN1C(=O)[C@@H]2Cc3c(n(CO)c4ccccc34)CN2C1=O | 40% | 50% | 38.7 | > 20 | > 20 | 69.4 | 58.6 | 13.1 | 20.6 | 13.5 | 13.7 | 4.1 | 7.1 | Active | Active | 91.8 | 96 | 71.8 | 93.8 | Active | Activity (MCF7 [24]): 3%; inhibition (MCF7 [20]): Active
6 | Cc1nc(Nc2ncc(C(=O)Nc3c(C)cccc3Cl)s2)cc(N2CCN(CCO)CC2)n1 [DASATINIB] | – | – | – | – | – | – | – | – | – | – | – | – | – | – | – | 38.3 | 73.1 | 20.5 | 58.7 | – | –
7 | CCCCN1C(=O)[C@H]2Cc3c([nH]c4ccccc34)CN2C1=O | 60% | 50% | 32.3 | > 20 | > 20 | 70.4 | 61.2 | 12.2 | 19.5 | 11 | 12.1 | 6.4 | 7.2 | Active | inactive | 64.7 | 91.2 | 78 | 86.4 | Active | Activity (MCF7 [24]): 3%; inhibition (MCF7 [20]): Active
8 | CN1C(=O)[C@@]23C[C@]4([C@]56C[C@@]78SS[C@@](CO)(C(=O)N7[C@H]5Nc5ccccc56)N(C)C8=O)c5ccccc5N[C@@H]4N2C(=O)[C@]1(CO)SS3 [CHAETOCIN] | – | – | – | – | – | – | – | – | – | – | – | – | – | – | – | -3.25 | 67.8 | -2.63 | -4.22 | Active | –
9 | CCN(CC)CCNC(=O)c1c(C)[nH]c(/C=C2\C(=O)Nc3ccc(F)cc32)c1C [SUNITINIB] | – | – | – | – | – | – | – | – | – | – | – | – | – | – | – | 9.8 | 73.7 | 2.6 | 54.2 | – | –
10 | CCCCN1C(=O)[C@H]2Cc3c(n(CO)c4ccccc34)CN2C1=O | 20% | 40% | 30.7 | > 20 | > 20 | 71.1 | 52.1 | 8.3 | 25.5 | 12.1 | 15.2 | 8.5 | 7.2 | Active | Active | 67.8 | 101 | 56 | 82.2 | Active | Activity (MCF7 [24]): 3%; inhibition (MCF7 [20]): Active
11 | C#CCN(C)Cc1ccccc1 [PARGYLINE] | – | – | – | – | – | – | – | – | – | – | – | – | – | – | – | 77.7 | 96.7 | 85 | 59.1 | – | –
12 | N[C@@H]1C[C@H]1c1ccccc1.N[C@H]1C[C@@H]1c1ccccc1 [TRANYLCYPROMINE] | – | – | – | – | – | – | – | – | – | – | – | – | – | – | – | 77.5 | 102 | 60.6 | 93.6 | – | –
